Source: article PMC7180617, “Biological Evaluation of 3-Benzylidenechromanones and Their Spiropyrazolines-Based Analogues” (Molecules, 2020)
“And” between values parts separate entries of the source, which are not always exact repeats. Equal entries are not always repeated. Blank lines part the entries; values can stand above or below the compound they belong to.

Key:
NALM-6 cells = test: MTT cytotoxicity assay, NALM-6; type: cell-based, human; settings: Homo sapiens, 46 h + 2 h incubation
Experimental: (§1) The first stage of the study used the MTT viability test to determine the cytotoxicity of ten compounds, i.e., 3-arylidenechromanone, 3-arylideneflavanone, spirochromanone and spiro- flavanone analogues, against four human cancer cell lines: HL-60, NALM-6, WM-115 and COLO-205.
(§2) Cytotoxicity was tested against human skin melanoma cells (WM-115, ECACC, Salisbury, UK), two human leukemia cell lines, viz. promyelocytic leukemia (HL-60) and lymphoblastic leukemia (NALM-6), and human colon adenocarcinoma cells (COLO-205). The cell lines COLO-205, WM-115 and HL-60 used in this work came from the ATCC American Type Culture Collection (Manassas, VA, USA), whereas the NALM-6 cell line was purchased from the German Collection of Microorganisms and Cell Cultures (Braunschweig, Germany). The leukaemia cells and colon adenocarcinoma were cultured in RPMI 1640 medium (Invitrogen, Grand Island, NY, USA) supplemented with 10% fetal bovine serum (FBS; Invitrogen) and gentamicin (25 µg/mL; KRKA, Novo Mesto, Slovenia). For melanoma WM-115 cells, Dulbecco’s minimal essential medium (DMEM; Invitrogen) was used. All cell lines were cultured at 37 °C in a humidified atmosphere of 5% CO2 in air.
(§3) For all experiments, the studied compounds were dissolved in DMSO (Sigma-Aldrich) and were further diluted in culture medium to obtain <0.1% DMSO concentration. In each experiment, controls with and without 0.1% DMSO were performed. The cytotoxicity of all compounds and of the reference compounds 4-chromanone and 3-benzylideneflavanone was determined by the MTT assay, i.e., 3-(4,5-dimethylthiazol-2-yl)-2,5-diphenyltetrazolium bromide (Sigma, St. Louis, MO, USA), which measures cellular dehydrogenase activity. Exponentially growing cells were seeded a day before the experiment onto a 96-well microplates (Nunc, Roskilde, Denmark) at a density up to 6–8 × 10^3 cells/well (depending on the cell line). Subsequently, various concentrations of the studied compounds freshly prepared in DMSO and diluted with complete culture medium were added. All compounds were tested for their cytotoxicity at a final concentration of 10^−7–10^−3 M. After 46 h of incubation with the studied compounds, the cells were treated with the MTT reagent and incubation was continued for another two hours. MTT – formazan crystals were dissolved in 20% sodium dodecyl sulphate (SDS, Sigma-Aldrich) and 50% DMF (Sigma-Aldrich) at pH 4.7; following this, absorbance was read at 570 nm on a multifunctional Victor ELISA-plate reader (Perkin Elmer, Turku, Finland). The IC50 values, i.e., the concentration of the test compound required to reduce the cell survival fraction to 50% of controls, were calculated from concentration-response curves and used as a measure of the sensitivity of the cells to a given treatment. As a control, cultured cells were grown in the absence of drugs. The data points represent the means of at least five to ten repeats ± standard deviation (S.D.).

erythrocytes = test: Red blood cell morphology (phase-contrast microscopy); type: cell-based; settings: 2% erythrocyte suspension, 37 °C, 1 h, phase contrast 400×
Experimental: Studies on erythrocyte morphology complement the erythrotoxicity studies because they provide information on potential immediate interactions of the tested compounds with the erythrocyte lipid bilayer, and the possibility of creating pathological forms of erythrocytes, which are not able to carry oxygen. The effects of the synthesized compounds, and the two reference compounds chromanone and flavanone, on the morphology of erythrocytes is shown in Figure 6. Briefly, 2% RBC suspension was incubated with 0.9% NaCl (control samples) or tested compounds at various concentrations corresponding to their activity towards cancer cell lines.
A 2% erythrocyte suspension was incubated at 37 °C for one hour with various concentrations of synthesized compounds. The morphology of the RBCs was examined by means of a phase contrast Opta-Tech inverted microscope, at 400× magnification, equipped with software (OptaView 7) for image analysis.

HL-60 cells [1] = test: MTT cytotoxicity assay, HL-60; type: cell-based, human; settings: Homo sapiens, HL-60, 48 h, MTT, 46 h + 2 h incubation
Experimental: as §1, §2, §3

[2] = Lipophilicity (logP) by RP-TLC; settings: RP-18 F254S TLC plates
Excerpt: Lipophilicity is one of the most important physicochemical properties in pharmaceutical research. It can be considered a key determinant of the pharmacokinetic properties of a drug. It is commonly measured by the partition coefficient between water and n-octanol, being expressed as logP [14]. […] Knowledge of the partition coefficient is valuable: it is frequently used in structure–activity relationship (SAR) and quantitative structure–activity relationship (QSAR) studies. The experimental lipophilicity of the synthesized compounds, viz. benzylideneflavanones, benzylidenechromanones and spiropyrazolines, was determined using RP-TLC. […] It is important to examine the relationship between structure of the compound and its lipophilicity and cytotoxicity.
The RP-TLC experiments were performed on TLC plates (5 × 10 cm) RP-18 F254S (Merck, Darmstadt, Germany). The synthesized compounds were dissolved in N,N-dimethylformamide DMF (2 mg/mL). […] A DMF-water solvent system was used as mobile phase. […] All experiments were performed at room temperature. The logP parameter was calculated using the equation from the calibration curve.

WM-115 cells = test: MTT cytotoxicity assay, WM-115; type: cell-based, human; settings: Homo sapiens, 46 h + 2 h incubation
Experimental: as §1, §2, §3

COLO-205 cells = test: MTT cytotoxicity assay, COLO-205; type: cell-based, human; settings: Homo sapiens, COLO 205, 48 h, 46 h + 2 h incubation
Experimental: as §1, §2, §3

HL-60 cells [3] = test: Cell cycle analysis by flow cytometry (propidium iodide); type: cell-based, human; settings: for cell cycle, G1, mean / cell cycle, G2/M, mean / cell cycle, S, mean: mean of n=2; for cell cycle distribution, G1 / cell cycle distribution, G2 / cell cycle distribution, G2/M: HL-60, 20 h, mean ± SD, n = 2
Experimental: The next stage examined the effects of the selected compounds on cell cycle progression in HL-60 leukemia cells. […] One million HL-60 (subline CCL 240; cell type: promyeloblast) cells in 3 mL of RPMI 1640 supplemented with 20% FBS were seeded on 6-well plate. […] Fixed cells were stored in −20 °C for 2–3 days. Before analysis, cells were centrifuged (10 min, 1500 rpm, 4 °C) and washed twice with cold PBS. After the second wash, the cells were suspended in 1mL of PBS containing 100 μg of RNase A and incubated in 37 °C for 10 min. Next, 5 μL of solution of propidium iodide (1 mg/mL) was added to each sample and incubated in dark for 30 min at RT. Stained cells were analyzed by flow cytometry (FACS Calibur, BD Biosciences, San Jose, CA, USA). Data from 10,000 gated cells were collected using CellQuestPro software (Ver 6.0, Becton Dickinson) and cell cycle analysis was performed with ModFit LT software (Ver 3.2, Verity Software House, Topsham, ME, USA).

[4] = test system: red blood cells (RBC membrane integrity); test: Red blood cell lysis assay; type: cell-based; settings: 2% RBC suspension, 37 °C, 1 h
Excerpt: All synthesized compounds with potential biological activity have to be tested for blood compatibility since xenobiotics will react with blood cells upon administration. In this case, biocompatibility refers to the quantification of cellular and plasma components of the blood. The measurement of the integrity of RBC membrane is considered a simple and reliable method for estimating hemocompatibility.
The studies on biological material were approved by the Bioethics Committee of the Medical University of Lodz, Poland (RNN/109/16/KE). The blood samples were obtained from healthy donors at the Blood Donation Centre in Lodz. The procedure for plasma preparation for erythrotoxicity studies was described previously. The influence of synthesized compounds as well as two reference compounds flavanone and chromanone on RBC membrane integrity was performed by lysis assay which was conducted according to our previous protocol. Briefly, 2% RBC suspension in 0.9% NaCl was incubated at 37 °C for one hour with the tested compounds at various concentrations corresponding to their activity towards cancer cell lines or 0.9% NaCl (control). The samples were centrifuged at 3000 rpm for 10 min and the absorbance of the supernatant was measured at 550 nm. The results are presented as percentage of haemolysis where a sample containing 10 μL of 2.0% v/v Triton X-100 was regarded as a positive control contributing to 100% of haemolysis. A sample containing saline solution represented spontaneous haemolysis of RBCs (control). The studies were performed on four biological samples obtained from different blood donors (n = 4). The results are presented as mean ± standard deviation (SD). The coefficient of variability for the method was counted: W = 9.51%, n = 5.

[5] = Figure S3, HL-60, 0.5 × IC50 (µM: quercetin 29, 1 1.5, 7 18, 10 4.7, 11 4.5, 12 6)
[6] = Figure S3, HL-60, 0.5 × IC50, each of two repetitions
[7] = Figure S3, HL-60, 1 × IC50 (µM: quercetin 58, 1 3, 7 35, 10 9.4, 11 9, 12 12)
[8] = Figure S3, HL-60, 1 × IC50, each of two repetitions
[9] = 0.5 × IC50 (µM: quercetin 29, 2 1.5, 7 18, 12 6, 11 4.5, 10 4.7)
[10] = 1 × IC50 (µM: quercetin 58, 2 3, 7 35, 12 12, 11 9, 10 9.4)

chromatographic logP [2]: 4.9
Structure (SMILES): O=C1/C(=C/c2ccccc2)C(c2ccccc2)Oc2ccccc21 (stereo not drawn) [Compound 5, (E)-3-benzylidene-2-phenylchroman-4-one]
IC50 (NALM-6 cells; NALM-6, 48 h, MTT): 27 ± 3.1 µM
erythrocyte morphology (in words) (erythrocytes): echinocytes accounted for the major part of erythrocytes
IC50 (HL-60 cells [1]): 33.7 ± 3.87 µM
IC50 (WM-115 cells; WM-115, 48 h, MTT): 47.4 ± 4.62 µM
IC50 (COLO-205 cells): 77.1 ± 1.9 µM

chromatographic logP [2]: 5.83
Structure (SMILES): COc1cccc(/C=C2/C(=O)c3ccccc3OC2c2ccccc2)c1 (stereo not drawn) [Compound 9, (E)-3-(3-methoxybenzylidene)-2-phenylchroman-4-one]
IC50 (NALM-6 cells; NALM-6, 48 h, MTT): 15.7 ± 6.23 µM
erythrocyte morphology (in words) (erythrocytes): echinocytes accounted for the major part of erythrocytes
IC50 (HL-60 cells [1]): 35.9 ± 2.96 µM
IC50 (WM-115 cells; WM-115, 48 h, MTT): 16.9 ± 3.78 µM
IC50 (COLO-205 cells): 170 ± 3.81 µM

Structure (SMILES): O=c1c(O)c(-c2ccc(O)c(O)c2)oc2cc(O)cc(O)c12 [Quercetin, reference compound]
IC50 (NALM-6 cells; NALM-6, MTT): 77.1 ± 7.8 µM
cell cycle, G1, mean (HL-60 cells [3]; [5]): 14,26%
cell cycle, G2/M, mean (HL-60 cells [3]; [5]): 60,76%
cell cycle, S, mean (HL-60 cells [3]; [5]): 24,99%
cell cycle, G1, single repetitions (HL-60 cells [3]; [6]): 12,59% and 15,93%
cell cycle, G2/M, single repetitions (HL-60 cells [3]; [6]): 60,50% and 61,01%
cell cycle, S, single repetitions (HL-60 cells [3]; [6]): 23,57% and 26,40%
cell cycle, G1, mean (HL-60 cells [3]; Figure S3, HL-60, 1 × IC50 (µM in parenthesis: quercetin 58, 1 3, 7 35, 10 9.4, 11 9, 12 12)): 11,59%
cell cycle, G2/M, mean (HL-60 cells [3]; [7]): 49,04%
cell cycle, S, mean (HL-60 cells [3]; [7]): 39,38%
cell cycle, G1, single repetitions (HL-60 cells [3]; [8]): 12,78% and 10,40%
cell cycle, G2/M, single repetitions (HL-60 cells [3]; [8]): 46,07% and 52,00%
cell cycle, S, single repetitions (HL-60 cells [3]; [8]): 41,15% and 37,60%
cell cycle distribution, G1 (HL-60 cells [3]; [9]): 14.3 ± 2.4%
cell cycle distribution, G2 (HL-60 cells [3]; [9]): 25.0 ± 2.0%
cell cycle distribution, G2/M (HL-60 cells [3]; [9]): 60.8 ± 0.4%
cell cycle distribution, G1 (HL-60 cells [3]; [10]): 11.6 ± 1.7%
cell cycle distribution, G2 (HL-60 cells [3]; [10]): 39.4 ± 2.5%
cell cycle distribution, G2/M (HL-60 cells [3]; [10]): 49.0 ± 4.2%
cells arrested in G2/M phase (HL-60 cells [3]; HL-60, concentrations of IC50 and 0.5 × IC50): 50–60%
IC50 (HL-60 cells [1]): 58 ± 4 µM
IC50 (WM-115 cells; WM-115, MTT): 178 ± 21.5 µM

erythrocyte morphology (in words) (erythrocytes): echinocyte formation was observed
Structure (SMILES): O=C1CC(c2ccccc2)Oc2ccccc21 (stereo not drawn) [flavanone, reference compound]
effect on RBC hemolysis / erythrocyte membrane integrity (in words) [4]: Neither flavanone nor chromanone was found to have any unfavourable effect on the erythrocyte membrane over the whole concentration range
